Assay results from patent US20250113823A1, “Arthropod Control Compositions” (priority 2022, published 2025).
Like-named read-outs stand apart in the source and are kept apart here.

System: Aedes aegypti
Assay: Warm Body assay, mosquito landings on treated warm body
Type: in vivo
Conditions: for pest or weed control at 16 µg/mL / pest or weed control at 400 µg/mL / pest or weed control at 10000 µg/mL / pest or weed control at 1 % / pest or weed control at 3.2 µg/mL / pest or weed control at 7.1 µg/mL / pest or weed control at 35.7 µg/mL / pest or weed control at 53 µg/mL / pest or weed control at 80 µg/mL / pest or weed control at 119 µg/mL / pest or weed control at 178 µg/mL / pest or weed control at 267 µg/mL / pest or weed control at 598 µg/mL / pest or weed control at 890 µg/mL / pest or weed control at 2000 µg/mL / pest or weed control at 4470 µg/mL / pest or weed control at 0.04 % / pest or weed control at 0.0016 %: Aedes aegypti; for pest or weed control at 16 µg/mL / pest or weed control at 400 µg/mL / pest or weed control at 10000 µg/mL / pest or weed control at 3.2 µg/mL / pest or weed control at 7.1 µg/mL / pest or weed control at 35.7 µg/mL / pest or weed control at 53 µg/mL / pest or weed control at 80 µg/mL / pest or weed control at 119 µg/mL / pest or weed control at 178 µg/mL / pest or weed control at 267 µg/mL / pest or weed control at 598 µg/mL / pest or weed control at 890 µg/mL / pest or weed control at 2000 µg/mL / pest or weed control at 4470 µg/mL: read-out: Percentage of repellence of mosquitoes Aedes aegypti landing on the warm body; for pest or weed control at 1 % / mosquito landing within the two minutes of experiments: highest tested concentration, 1% (Table 3); for pest or weed control at 1 % / pest or weed control at 0.04 %: read-out: repellence; for pest or weed control at 7.1 µg/mL: 0.0071 mg/mL (Table 1); for pest or weed control at 53 µg/mL: 0.053 mg/mL (Table 1); for pest or weed control at 119 µg/mL: 0.119 mg/mL (Table 1); for pest or weed control at 267 µg/mL: 0.267 mg/mL (Table 1); for pest or weed control at 598 µg/mL: 0.598 mg/mL (Table 1); for pest or weed control at 4470 µg/mL: 4.47 mg/mL (Table 1); for pest or weed control at 0.04 %: intermediate concentration of 0.04% (Table 3); for pest or weed control at 0.0016 %: read-out: reduce the number of mosquito landings
Procedure: The arthropod controlling effect according to the present invention is determined on mosquitoes using an adapted Warm Body assay as defined in Kröber T, Kessler S, Frei J, Bourquin M, Guerin PM. An in vitro assay for testing mosquito controlling compounds employing a warm body and carbon dioxide as a behavioral activator. J Am Mosq Control Assoc. 2010; 26: 381-386. Further information is provided in the accompanying examples
The controlling effect, repellence & spatial repellence, according to the present invention is determined by testing the Warm Body assay against the yellow fever mosquito, Aedes aegypti Rockefeller strain. […] Observations of controlling efficacy were made on host-seeking females of uniform age, 5 to 10 days old selected as mentioned in the publication mentioned hereinabove. Tested hungry females had access to 10% sugar solution but were not blood-fed. Further information is provided in the accompanying examples.
The published protocol has been adapted in not manually counting the landing mosquitoes but automatically using an automatic counting software, the switch from Anopheles gambiae to A. aegypti led to a decrease of mosquitoes' number placed in the tested cage due to the size difference (i.e. 30 mosquitoes instead of 50) and to an increase of lighting as A. aegypti is a diurnal mosquitoes (i.e. 150 lux instead of 4 lux). Further information is provided in the accompanying examples. […]
The controlling effect according to the present invention was assessed using an adapted Warm Body assay as defined in Kröber T, Kessler S, Frei J, Bourquin M, Guerin P M. 2010. J Am Mosq Control Assoc. 26: 381-386. In this in-vitro assay the number of mosquito landing on a warm body, simulating an attractive host treated with the tested stimuli, was measured in order to assess the repellence effect.
The published protocol has been adapted as the switch from Anopheles gambiae to Aedes aegypti led to a decrease of mosquitoes placed in the tested cage due to the size difference (i.e. 30 mosquitoes instead of 50) and to an increase of lighting since A. aegypti is a diurnal mosquitoes (i.e. 150 lux instead of 4 lux).
On the sandblasted glass Petri dish covering the warm body (28.3 cm^2), 100 μL of the compounds diluted at different concentrations in ethanol was applied. The number of mosquito landing on the warm body was counted for each stimulus and pure ethanol (solvent) as control.

[1] = lowest concentration of 0.0016% (Table 3)

## COc1cccc(OC)c1O [compound 2244, 2,6-dimethoxyphenol]
0.016 mg/mL (Table 3)
  pest or weed control at 16 µg/mL: 44%
0.4 mg/mL (Table 3)
  pest or weed control at 400 µg/mL: 59%
10 mg/mL (Table 3)
  pest or weed control at 10000 µg/mL: 85%

## CCc1cc(OC)c(O)c(OC)c1 [compound 2240, 4-ethyl-2,6-dimethoxyphenol]
0.016 mg/mL (Table 3)
  pest or weed control at 16 µg/mL: 0%
0.4 mg/mL (Table 3)
  pest or weed control at 400 µg/mL: 47%
10 mg/mL (Table 3)
  pest or weed control at 10000 µg/mL: 94%
  pest or weed control at 1 %: > 90%

## CC=Cc1cc(OC)c(O)c(OC)c1 [compound 1124, 2,6-dimethoxy-4-[prop-1-enyl]phenol]
0.0032 mg/mL (Table 1)
  pest or weed control at 3.2 µg/mL: 26%
  pest or weed control at 7.1 µg/mL: 40%
  pest or weed control at 53 µg/mL: 48%
  pest or weed control at 119 µg/mL: 35%
  pest or weed control at 267 µg/mL: 59%
  pest or weed control at 598 µg/mL: 69%
  pest or weed control at 4470 µg/mL: 85%
0.016 mg/mL (Table 1)
  pest or weed control at 16 µg/mL: 62%
0.0357 mg/mL (Table 1)
  pest or weed control at 35.7 µg/mL: 0%
0.08 mg/mL (Table 1)
  pest or weed control at 80 µg/mL: 84%
0.178 mg/mL (Table 1)
  pest or weed control at 178 µg/mL: 66%
0.4 mg/mL (Table 1)
  pest or weed control at 400 µg/mL: 78%
0.89 mg/mL (Table 1)
  pest or weed control at 890 µg/mL: 78%
2 mg/mL (Table 1)
  pest or weed control at 2000 µg/mL: 95%
10 mg/mL (Table 1)
  pest or weed control at 10000 µg/mL: 98%

## COc1cc(C=NCCN=Cc2cc(OC)c(OC)c(OC)c2)cc(OC)c1OC [compound 1980, 1-(3,4,5-trimethoxyphenyl)-N-[2-[(3,4,5-trimethoxyphenyl)methylideneamino]ethyl]methanimine]
0.0032 mg/mL (Table 1)
  pest or weed control at 3.2 µg/mL: 53%
  pest or weed control at 7.1 µg/mL: 57%
  pest or weed control at 53 µg/mL: 77%
  pest or weed control at 119 µg/mL: 75%
  pest or weed control at 267 µg/mL: 84%
  pest or weed control at 598 µg/mL: 88%
  pest or weed control at 4470 µg/mL: 71%
0.016 mg/mL (Table 1)
  pest or weed control at 16 µg/mL: 34%
0.0357 mg/mL (Table 1)
  pest or weed control at 35.7 µg/mL: 32%
0.08 mg/mL (Table 1)
  pest or weed control at 80 µg/mL: 92%
0.178 mg/mL (Table 1)
  pest or weed control at 178 µg/mL: 67%
0.4 mg/mL (Table 1)
  pest or weed control at 400 µg/mL: 81%
0.89 mg/mL (Table 1)
  pest or weed control at 890 µg/mL: 63%
2 mg/mL (Table 1)
  pest or weed control at 2000 µg/mL: 86%
10 mg/mL (Table 1)
  pest or weed control at 10000 µg/mL: 96%

## COc1cc(C=CC(=O)O)cc(OC)c1OC [compound 1566, 3-(3,4,5-trimethoxyphenyl)prop-2-enoic acid]
0.0032 mg/mL (Table 2)
  pest or weed control at 3.2 µg/mL: 0%
0.016 mg/mL (Table 2)
  pest or weed control at 16 µg/mL: 20%
0.0357 mg/mL (Table 2)
  pest or weed control at 35.7 µg/mL: 22%
0.08 mg/mL (Table 2)
  pest or weed control at 80 µg/mL: 0%
0.178 mg/mL (Table 2)
  pest or weed control at 178 µg/mL: 30%
0.4 mg/mL (Table 2)
  pest or weed control at 400 µg/mL: 81%
0.89 mg/mL (Table 2)
  pest or weed control at 890 µg/mL: 69%
2 mg/mL (Table 2)
  pest or weed control at 2000 µg/mL: 57%
10 mg/mL (Table 2)
  pest or weed control at 10000 µg/mL: 96%

## COc1cc(CO)cc(OC)c1OC [compound 1968, (3,4,5-trimethoxyphenyl)methanol]
0.016 mg/mL (Table 3)
  pest or weed control at 16 µg/mL: 23%
0.4 mg/mL (Table 3)
  pest or weed control at 400 µg/mL: 38%
10 mg/mL (Table 3)
  pest or weed control at 10000 µg/mL: 100%
  pest or weed control at 1 %: > 90%
  mosquito landing within the two minutes of experiments: protect the attractive stimulus for any mosquito landing

## C=CCc1cc(OC)c(OC)c(OC)c1 [compound 1682, 1,2,3-trimethoxy-5-prop-2-enylbenzene]
0.016 mg/mL (Table 3)
  pest or weed control at 16 µg/mL: 0%
0.4 mg/mL (Table 3)
  pest or weed control at 400 µg/mL: 73%
10 mg/mL (Table 3)
  pest or weed control at 10000 µg/mL: 90%
  pest or weed control at 1 %: > 90%

## COc1cc(C=CCOC(C)=O)cc(OC)c1OC [compound 2247, 3-(3,4,5-trimethoxyphenyl)-2-acetate]
0.016 mg/mL (Table 3)
  Percentage of repellence of mosquitoes Aedes aegypti landing on the warm body: 39%
0.4 mg/mL (Table 3)
  Percentage of repellence of mosquitoes Aedes aegypti landing on the warm body: 44%
10 mg/mL (Table 3)
  Percentage of repellence of mosquitoes Aedes aegypti landing on the warm body: 98%

## CCOc1c(OC)cccc1OC [compound 2276, 2-ethoxy-1,3-dimethoxybenzene]
0.016 mg/mL (Table 3)
  pest or weed control at 16 µg/mL: 0%
0.4 mg/mL (Table 3)
  pest or weed control at 400 µg/mL: 0%
10 mg/mL (Table 3)
  pest or weed control at 10000 µg/mL: 98%
  pest or weed control at 1 %: > 90%

## COc1cc(C2CCCO2)ccc1O (centres unmarked) [compound 1481, 2-methoxy-4-(oxolan-2-yl)phenol]
0.016 mg/mL (Table 3)
  pest or weed control at 16 µg/mL: 21%
0.4 mg/mL (Table 3)
  pest or weed control at 400 µg/mL: 89%
10 mg/mL (Table 3)
  pest or weed control at 10000 µg/mL: 97%
  pest or weed control at 1 %: > 90%
  pest or weed control at 0.04 %: > 75%

## COc1cc(C=CC(=O)O)cc(OC)c1O [compound 1553, 3-(4-hydroxy-3,5-dimethoxyphenyl)prop-2-enoic acid]
0.016 mg/mL (Table 3)
  pest or weed control at 16 µg/mL: 60%
0.4 mg/mL (Table 3)
  pest or weed control at 400 µg/mL: 85%
10 mg/mL (Table 3)
  pest or weed control at 10000 µg/mL: 43%
  pest or weed control at 0.04 %: > 75%
[1]
  pest or weed control at 0.0016 %: > 50%

## COc1cc(C=CC=O)ccc1O [compound 1527, 3-(4-hydroxy-3-methoxyphenyl)pro-2-enal]
0.016 mg/mL (Table 3)
  Percentage of repellence of mosquitoes Aedes aegypti landing on the warm body: 69%
0.4 mg/mL (Table 3)
  Percentage of repellence of mosquitoes Aedes aegypti landing on the warm body: 76%
10 mg/mL (Table 3)
  Percentage of repellence of mosquitoes Aedes aegypti landing on the warm body: 71%

## COc1cc(C(=O)O)cc(OC)c1O [compound 2270, 4-hydroxy-3,5-dimethoxybenzoic acid]
0.016 mg/mL (Table 3)
  pest or weed control at 16 µg/mL: 67%
0.4 mg/mL (Table 3)
  pest or weed control at 400 µg/mL: 62%
10 mg/mL (Table 3)
  pest or weed control at 10000 µg/mL: 87%
[1]
  pest or weed control at 0.0016 %: > 50%

## COc1cc(C(C)OC)ccc1O (centres unmarked) [compound 1480, 2-methoxy-4-(1-methoxyethyl)phenol]
0.016 mg/mL (Table 3)
  pest or weed control at 16 µg/mL: 66%
0.4 mg/mL (Table 3)
  pest or weed control at 400 µg/mL: 61%
10 mg/mL (Table 3)
  pest or weed control at 10000 µg/mL: 100%
  pest or weed control at 1 %: > 90%
  mosquito landing within the two minutes of experiments: protect the attractive stimulus for any mosquito landing
[1]
  pest or weed control at 0.0016 %: > 50%

## CCOc1cc(C)ccc1O [compound 1303, 2-ethoxy-4-methylphenol]
0.016 mg/mL (Table 3)
  pest or weed control at 16 µg/mL: 16%
0.4 mg/mL (Table 3)
  pest or weed control at 400 µg/mL: 21%
10 mg/mL (Table 3)
  pest or weed control at 10000 µg/mL: 100%
  pest or weed control at 1 %: > 90%
  mosquito landing within the two minutes of experiments: protect the attractive stimulus for any mosquito landing

## CC=Cc1cc(OC)ccc1OC [compound 1196, 1,4-dimethoxy-2-[1-propen-1-yl]benzene]
  pest or weed control at 16 µg/mL: 57%
  pest or weed control at 400 µg/mL: 74%
  pest or weed control at 10000 µg/mL: 86%
  pest or weed control at 0.0016 %: > 50%

## COc1ccc(C#N)c(OC)c1OC [compound 2266, 2,3,4-trimethoxybenzonitrile]
0.016 mg/mL (Table 3)
  pest or weed control at 16 µg/mL: 48%
0.4 mg/mL (Table 3)
  pest or weed control at 400 µg/mL: 83%
10 mg/mL (Table 3)
  pest or weed control at 10000 µg/mL: 89%
  pest or weed control at 0.04 %: > 75%

## CCCc1ccc2c(c1)OCC(=O)CO2 [compound 465, 7-propyl-1,5-benzoodioxepin-3-one]
0.016 mg/mL (Table 3)
  Percentage of repellence of mosquitoes Aedes aegypti landing on the warm body: 4%
0.4 mg/mL (Table 3)
  Percentage of repellence of mosquitoes Aedes aegypti landing on the warm body: 36%
10 mg/mL (Table 3)
  Percentage of repellence of mosquitoes Aedes aegypti landing on the warm body: 87%
